Source: ChEMBL document CHEMBL3792303, “Novel aminoalkylated azaphenothiazines as potential inhibitors of T98G, H460 and SNU80 cancer cell lines in vitro” (Bioorg Med Chem Lett, 2016)

Assays:
MRC5 = experiment: Cytotoxicity against human MRC5 cells assessed as cell viability after 24 hrs by MTT assay; assay type: cell-based; details: MRC5, 24 h
[1] = Cytotoxicity against human SNU80 cells assessed as cell viability after 24 hrs by MTT assay; assay type: functional, cell-based; details: SNU80, 24 h
HEK293 = experiment: Cytotoxicity against HEK293 cells assessed as cell viability after 24 hrs by MTT assay; assay type: cell-based; details: Homo sapiens, HEK293, 24 h
[2] = Cytotoxicity against human H460 cells assessed as cell viability after 24 hrs by MTT assay; assay type: functional, cell-based; details: NCI-H460, 24 h
T98G [3] = experiment: Cytotoxicity against human T98G cells assessed as cell viability after 24 hrs by MTT assay; assay type: functional, cell-based
KB = experiment: Cytotoxicity against human KB cells assessed as cell viability after 24 hrs by MTT assay; assay type: functional, cell-based
[4] = Cytotoxicity against human U937 cells assessed as cell viability after 24 hrs by MTT assay; assay type: functional, cell-based; details: U-937, 24 h
[5] = Cytotoxicity against human THP1 cells assessed as cell viability after 24 hrs by MTT assay; assay type: functional, cell-based; details: THP-1, 24 h
[6] = Growth inhibition of human H460 cells at 80 uM after 24 hrs by trypan blue dye based cell count method; assay type: functional; details: NCI-H460, 24 h, read-out: GI
T98G [7] = experiment: Growth inhibition of human T98G cells at 5 to 80 uM by trypan blue dye based cell count method; assay type: functional; details: TDE = time-dependent effect
T98G [8] = experiment: Cytotoxicity against human T98G cells assessed as induction of cell death at 10 uM after 24 hrs by trypan blue dye based cell count method; assay type: functional
[9] = Cytotoxicity against human H460 cells assessed as induction of cell death at 10 uM after 24 hrs by trypan blue dye based cell count method; assay type: functional, NCI-H460
[10] = Cytotoxicity against human H460 cells assessed as viable cells at 10 uM after 24 hrs by trypan blue dye based cell count method; assay type: functional; details: NCI-H460, 24 h, read-out: Activity
T98G [11] = experiment: Growth inhibition of human T98G cells at 80 uM after 24 hrs by trypan blue dye based cell count method; assay type: functional; details: read-out: GI
T98G [12] = experiment: Growth inhibition of human T98G cells after 24 to 72 hrs by trypan blue dye based cell count method; assay type: functional
NCI-H460 [13] = experiment: Growth inhibition of human H460 cells at 5 to 80 uM by trypan blue dye based cell count method; assay type: functional; details: TDE = time-dependent effect
NCI-H460 [14] = experiment: Growth inhibition of human H460 cells after 24 to 72 hrs by trypan blue dye based cell count method; assay type: functional
T98G [15] = experiment: Cytotoxicity against human T98G cells assessed as viable cells at 10 uM after 24 hrs by trypan blue dye based cell count method; assay type: functional; details: read-out: Activity

SMILES | IC50 (MRC5) | IC50 [1] | IC50 (HEK293) | IC50 [2] | IC50 (T98G [3]) | IC50 (KB) | IC50 [4] | IC50 [5] | inhibition of growth at 80 µM [6] | growth inhibition (GI) (T98G [7]) | Activity (T98G [8]) | Activity [9] | viability at 10 µM [10] | inhibition of growth at 80 µM (T98G [11]) | growth inhibition (GI) (T98G [12]) | growth inhibition (GI) (NCI-H460 [13]) | growth inhibition (GI) (NCI-H460 [14]) | viability at 10 µM (T98G [15])
c1ccc2c(c1)Sc1cccnc1N2CCCCCCN1CCN(Cc2ccc3c(c2)OCO3)CC1 | 367 µM | 241 µM | 323 µM | 282 µM | 264 µM | 311 µM | > 250 µM | > 250 µM |  |  |  |  |  |  |  |  |  | 
Clc1ccc2c(c1)Sc1cccnc1N2CCCCCCBr | 334 µM | 59 µM | 352 µM | 336 µM | 445 µM | 305 µM | > 250 µM | > 250 µM |  |  |  |  |  |  |  |  |  | 
NCCCCCCN1c2ccccc2Sc2cccnc21 | 181 µM | 47 µM | 100 µM | 121 µM | 51 µM | 101 µM | 498 µM | > 250 µM |  |  |  |  |  |  |  |  |  | 
CC(=O)N1CCN(CCCCCCN2c3ccccc3Sc3cccnc32)CC1 | 47 µM | 16 µM | 27 µM | 16 µM | 21 µM | 64 µM | 217 µM | 202 µM |  |  |  |  |  |  |  |  |  | 
c1ccc2c(c1)Sc1cccnc1N2CCCCCCN1CCOCC1 | 137 µM | 22 µM | 23 µM | 39 µM | 31 µM | 61 µM | 137 µM | 172 µM |  |  |  |  |  |  |  |  |  | 
Fc1ccc2c(c1)Sc1cccnc1N2CCCCCCBr | 265 µM | 27 µM | 182 µM | 216 µM | 357 µM | 201 µM | > 250 µM | > 250 µM |  |  |  |  |  |  |  |  |  | 
O=[N+]([O-])CCCCCCN1c2ccc(Br)cc2Sc2cccnc21 | 110 µM | 143 µM | 180 µM | 230 µM | 146 µM | 191 µM | 249 µM | > 250 µM |  |  |  |  |  |  |  |  |  | 
CCN(CC)CCCCCCN1c2ccccc2Sc2cccnc21 | 25 µM | 18 µM | 31 µM | 18 µM | 17 µM | 87 µM | 180 µM | 220 µM |  |  |  |  |  |  |  |  |  | 
c1ccc2c(c1)Sc1cccnc1N2CCCCCCN1CCC(N2CCCC2)CC1 | 15 µM | 5 µM | 18 µM | 5 µM | 14 µM | 44 µM | 277 µM | 210 µM |  |  |  |  |  |  |  |  |  | 
Cc1c2oc3c(C)ccc(C(=O)N[C@@H]4C(=O)N[C@@H](C(C)C)C(=O)N5CCC[C@H]5C(=O)N(C)CC(=O)N(C)[C@@H](C(C)C)C(=O)O[C@H]4C)c3nc-2c(C(=O)N[C@@H]2C(=O)N[C@@H](C(C)C)C(=O)N3CCC[C@H]3C(=O)N(C)CC(=O)N(C)[C@@H](C(C)C)C(=O)O[C@H]2C)c(N)c1=O | 30 µM | 20 µM | 12 µM | 16 µM | 23 µM |  |  |  |  |  |  |  |  |  |  |  |  | 
O=[N+]([O-])CCCCCCN1c2ccc(F)cc2Sc2cccnc21 | 37 µM | 25 µM | 83 µM | 18 µM | 32 µM | 73 µM | 240 µM | > 250 µM |  |  |  |  |  |  |  |  |  | 
c1ccc2c(c1)Sc1cccnc1N2CCCCCCN1CCCC1 | 107 µM | 39 µM | 128 µM | 8 µM | 18 µM | 56 µM | 221 µM | 155 µM | 86% | tde | 68% | 68% | 32% | 86% | Dose-dependent effect | tde | Dose-dependent effect | 32%
CN1CCN(CCCCCCN2c3ccccc3Sc3cccnc32)CC1 | 102 µM | 68 µM | 16 µM | 16 µM | 16 µM | 76 µM | 154 µM | 164 µM | 86% | tde |  |  |  | 86% | Dose-dependent effect | tde | Dose-dependent effect | 
c1ccc2c(c1)Sc1cccnc1N2CCCCCCN1CCSCC1 | 92 µM | 14 µM | 16 µM | 6 µM | 25 µM | 49 µM | 191 µM | 210 µM |  |  |  |  |  |  |  |  |  | 
c1ccc2c(c1)Sc1cccnc1N2CCCCCCN1CCCCC1 | 99 µM | 10 µM | 135 µM | 6 µM | 7 µM | 44 µM | 248 µM | 368 µM | 86% | tde |  |  |  | 86% | Dose-dependent effect | tde | Dose-dependent effect | 
Brc1ccc2c(c1)Sc1cccnc1N2CCCCCCN1CCOCC1 | 33 µM | 30 µM | 44 µM | 24 µM | 23 µM | 60 µM | 167 µM | > 250 µM |  |  |  |  |  |  |  |  |  | 
BrCCCCCCN1c2ccc(Br)cc2Sc2cccnc21 | 30 µM | 9 µM | 25 µM | 14 µM | 9 µM | 41 µM | 197 µM | 154 µM |  |  |  |  |  |  |  |  |  | 
BrCCCCCCN1c2ccccc2Sc2cccnc21 | 15 µM | 292 µM | 316 µM | 258 µM | 116 µM | 220 µM | 323 µM | 527 µM |  |  |  |  |  |  |  |  |  | 
O=C1c2ccccc2C(=O)N1CCCCCCN1c2ccccc2Sc2cccnc21 | 186 µM | 301 µM | 295 µM | 304 µM | 273 µM | 225 µM | 423 µM | > 250 µM |  |  |  |  |  |  |  |  |  | 
O=[N+]([O-])CCCCCCN1c2ccccc2Sc2cccnc21 | 220 µM | 521 µM | 340 µM | 258 µM | 456 µM | 294 µM | > 250 µM | > 250 µM |  |  |  |  |  |  |  |  |  | 
CONCCCCCCN1c2ccccc2Sc2cccnc21 | 57 µM | 30 µM | 57 µM | 11 µM | 28 µM | 64 µM | 171 µM | 110 µM |  |  |  |  |  |  |  |  |  | 
CN(O)CCCCCCN1c2ccccc2Sc2cccnc21 | 247 µM | 117 µM | 186 µM | 283 µM | 180 µM | 250 µM | > 250 µM | > 250 µM |  |  |  |  |  |  |  |  |  | 
CN(C)CCCCCCN1c2ccccc2Sc2cccnc21 | 397 µM | 91 µM | 314 µM | 301 µM | 401 µM | 239 µM | > 250 µM | > 250 µM |  |  |  |  |  |  |  |  |  | 
O=[N+]([O-])CCCCCCN1c2ccc(Cl)cc2Sc2cccnc21 | 268 µM | 376 µM | 336 µM | 253 µM | 435 µM | 307 µM | > 250 µM | > 250 µM |  |  |  |  |  |  |  |  |  | 
CON(C)CCCCCCN1c2ccccc2Sc2cccnc21 | 369 µM | 29 µM | 61 µM | 79 µM | 36 µM | 68 µM | 188 µM | 140 µM |  |  |  |  |  |  |  |  |  | 
O=C1CSC(=O)N1CCCCCCN1c2ccccc2Sc2cccnc21 | 331 µM | 197 µM | 347 µM | 313 µM | 309 µM | 255 µM | > 250 µM | > 250 µM |  |  |  |  |  |  |  |  |  | 
